Earlier results as cited in US20240216406A1, “METHODS AND COMPOSITIONS FOR SUPPORTING HUMAN HEALTH DURING SPACE TRAVEL” (Intrinsic Medicine, Inc., priority 2021, published 2024).
Read-outs that look alike come from different tables or passages of the source.

Assays:
E. Coli = conditions: in the presence of the HMO
local gut inflammation = conditions: models of necrotizing enterocolitis and other inflammatory bowel diseases
[1] = tested on: PDL1, COX2, CCL2 (MCP1), CCL5
p65 = conditions: murine rheumatoid arthritis model
[2] = tested on: murine and human derived macrophages; conditions: in vitro
[3] = tested on: mouse models of rheumatoid arthritis; conditions: administered orally; mouse rheumatoid arthritis models with LPS challenge

CC1O[C@@H](OC2[C@H](O[C@@H]3C(CO)OC(O)C(O)C3O)OC(CO)[C@H](O)[C@@H]2O)C(O)[C@@H](O)[C@@H]1O (some centres unmarked) [2′FL, 2′-fucosyllactose]
E. Coli adhesion to Caco-2 cells (E. Coli): reduction of E. Coli adhesion
TNFα and IL-8 (TNFα and IL-8): reduction in TNFα and IL-8
gut epithelial barrier function (gut epithelial barrier): positive effects on gut epithelial barrier function
local gut inflammation (local gut inflammation): reduction of local gut inflammation

CC(=O)N[C@H]1C([C@H](O)[C@H](O)CO)O[C@@](O[C@@H]2C(O)[C@H](O[C@@H]3C(CO)O[C@@H](O)C(O)[C@H]3O)OC(CO)[C@@H]2O)(C(=O)O)C[C@H]1O (some centres unmarked) [3′SL, 3′-sialyllactose]
PDL1, COX2 and select chemokines such as CCL2 (MCP1) and CCL5 [1]: reduce other key target proteins
phosphorylation of p65 (NF-kB signaling pathway) (p65): inhibited phosphorylation of p65
IL-1β, IL-2, IL-4, IL-6, IL-12, IFN γ or TNF-α [2]: reductions
IL-1β, IL-2, IL-4, IL-6, IL-12, IFN γ or TNF-α ([2]; listed as 3′-SL): more significant reductions

CC(=O)N[C@H]1C([C@H](O)[C@H](O)CO)O[C@@](OCC2O[C@@H](O[C@@H]3C(CO)O[C@@H](O)C(O)[C@H]3O)C(O)[C@@H](O)[C@H]2O)(C(=O)O)C[C@H]1O (some centres unmarked) [6′SL, 6′-sialyllactose]
E. Coli adhesion to Caco-2 cells (E. Coli): reduction of E. Coli adhesion
IL-1β, IL-2, IL-4, IL-6, IL-12, IFN γ or TNF-α [2]: reductions

sialyllactose
clinical assessments of disease [3]: benefit in clinical assessments of disease
